How the values were obtained:
[1] = test system: histamine induced scalp itch; assay: Clinical assessment of histamine induced scalp itch (histamine iontophoresis, half head study); format: in vivo, human; conditions: 1.5% v/v CMEA in ethanol, 30 μl patch on scalp for 24 h, then histamine iontophoresis
Experimental: Cocomonoethanolamide (CMEA) efficacy against itch was assessed using histamine iontophoresis. CMEA (1.5% v/v) was made up in 100% ethanol. The same concentration of ethanol was used as the vehicular control. A total of 31 subjects completed the randomised, double blind, half head clinical study. Volunteers were initially familiarised with the iontophoresis equipment and test protocol prior to study commencement. Following this phase, product application was commenced. Two sites were selected on each side of the head approximately halfway between the top of the ear and the apex of the head. An area of 2 cm^2 was carefully trimmed close to the scalp. Both the CMEA test solution and the ethanol control (30 μl each) were applied to a filter paper and placed in a 12 mm Finn chamber, which was attached the scalp with adhesive tape. Volunteers kept the patch in place for a period of 24 h. The chambers were then removed from the scalp and each application site received a histamine challenge via iontophoresis. Subjects scored perceived itch throughout the procedure by sliding an indicator up or down a Visual Analogue Score (VAS; calibrated in gradient fashion from 0 (none) to 100% (extremely intense)) to indicate itch intensity in real time. Data are expressed as the mean area under the curve+/−S.E. (standard error of the mean).

[2] = target: T1, human recombinant CB1 receptor (Homo sapiens, UniProt P21554); assay: CB1 receptor inhibition binding assay ([3H]-CP-55,940 displacement)
T1 construct: expressed in transfected cells; host or cells: HEK-293
T1 sequence (P21554 whole entry): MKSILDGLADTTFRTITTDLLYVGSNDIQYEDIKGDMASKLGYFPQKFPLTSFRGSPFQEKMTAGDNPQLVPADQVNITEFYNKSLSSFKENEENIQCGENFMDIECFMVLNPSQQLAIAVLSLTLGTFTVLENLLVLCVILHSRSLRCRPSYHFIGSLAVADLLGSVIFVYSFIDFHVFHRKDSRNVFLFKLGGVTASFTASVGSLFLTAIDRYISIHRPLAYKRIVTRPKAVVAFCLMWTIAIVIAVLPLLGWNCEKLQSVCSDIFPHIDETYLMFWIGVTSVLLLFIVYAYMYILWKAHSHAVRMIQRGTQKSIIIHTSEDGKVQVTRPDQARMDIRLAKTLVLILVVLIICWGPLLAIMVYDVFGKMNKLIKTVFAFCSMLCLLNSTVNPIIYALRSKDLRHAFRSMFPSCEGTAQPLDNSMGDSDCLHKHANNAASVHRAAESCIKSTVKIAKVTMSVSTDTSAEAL
Experimental: (§1) Ki values were calculated by applying the Cheng-Prusoff equation to the IC50 values (obtained by GraphPad) for the displacement of the bound radioligand by increasing concentrations of the test compound.

[3] = target: T2, human recombinant CB2 receptor (Homo sapiens, UniProt P34972); assay: CB2 receptor inhibition binding assay ([3H]-CP-55,940 displacement); conditions: 0.084 nM [3H]-CP-55,940, 90 minutes at 30° C
T2 construct: expressed in transfected cells; host or cells: HEK-293
T2 sequence (P34972 whole entry): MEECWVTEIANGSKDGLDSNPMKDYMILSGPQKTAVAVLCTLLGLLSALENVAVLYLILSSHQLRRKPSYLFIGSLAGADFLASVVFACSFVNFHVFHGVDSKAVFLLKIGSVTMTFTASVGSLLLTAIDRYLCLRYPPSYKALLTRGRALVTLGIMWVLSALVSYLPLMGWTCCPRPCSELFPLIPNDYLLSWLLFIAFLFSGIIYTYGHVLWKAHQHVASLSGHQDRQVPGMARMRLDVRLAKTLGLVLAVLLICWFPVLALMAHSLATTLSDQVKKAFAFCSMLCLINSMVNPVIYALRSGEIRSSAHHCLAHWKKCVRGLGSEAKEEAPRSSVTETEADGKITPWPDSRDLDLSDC
Experimental: as §1

## Cocomonoethanolamide [CMEA]
[1]; 31 subjects
  Visual Analogue Score (area under the curve; mean +/− S.E.M.): 74942 (9625)
[1]; versus ethanol control, P<0.02
  reduction of perceived scalp itch: 16.6%
[2]; HEK-293 cells transfected with human recombinant CB1 receptor, 0.14 nM [3H]-CP-55,940, 90 minutes at 30° C
  IC50 for displacement of [3H]-CP-55,940 at CB1 receptor: 5.08 µg/mL
[2]; calculated by Cheng-Prusoff equation from IC50, 0.14 nM [3H]-CP-55,940, 90 minutes at 30° C
  Ki at CB1 receptor: 2.85 µg/mL
[2]; comparison of CB1 and CB2 binding data
  binding affinity, CB1R compared with CB2R: higher for the CB1R than for CB2R
[3]; HEK-293 cells transfected with human recombinant CB2 receptor
  IC50 for displacement of [3H]-CP-55,940 at CB2 receptor: 8.19 µg/mL
[3]; calculated by Cheng-Prusoff equation from IC50
  Ki at CB2 receptor: 6.44 µg/mL

From US20100094053A1, “USE OF PERSONAL CARE COMPOSITION” (CONOPCO, INC., D/B/A UNILEVER, priority 2008, published 2010)
